Source: ChEMBL document CHEMBL1144330, “Novel pyrazinone mono-amides as potent and reversible caspase-3 inhibitors” (Bioorg Med Chem Lett, 2005)

Tests used:
[1] = Inhibitory concentration against etoposide induced apoptosis in mice cerebellar granule neurons; assay type: functional; details: Mus musculus
Caspase-1 = target: T1, Caspase-1 (Homo sapiens, UniProt P29466); experiment: Inhibitory concentration against recombinant human caspase-1 in neuronal precursor (NT2) cells
T1 sequence (P29466 whole entry): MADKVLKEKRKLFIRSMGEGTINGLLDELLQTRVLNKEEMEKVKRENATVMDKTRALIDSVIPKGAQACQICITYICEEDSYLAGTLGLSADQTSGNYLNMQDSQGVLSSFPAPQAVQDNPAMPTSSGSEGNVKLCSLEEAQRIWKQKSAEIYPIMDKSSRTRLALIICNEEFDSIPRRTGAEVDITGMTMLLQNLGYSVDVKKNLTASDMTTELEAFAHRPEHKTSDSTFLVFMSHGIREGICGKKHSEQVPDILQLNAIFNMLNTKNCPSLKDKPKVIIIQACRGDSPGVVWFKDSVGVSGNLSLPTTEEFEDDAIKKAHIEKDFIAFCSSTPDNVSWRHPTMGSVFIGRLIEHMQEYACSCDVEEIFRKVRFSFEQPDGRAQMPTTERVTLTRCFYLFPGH

Caspase-3 = target: T2, Caspase-3 (Homo sapiens, UniProt P42574); experiment: Inhibitory concentration against recombinant human caspase-3 in neuronal precursor (NT2) cells
T2 sequence (P42574 whole entry): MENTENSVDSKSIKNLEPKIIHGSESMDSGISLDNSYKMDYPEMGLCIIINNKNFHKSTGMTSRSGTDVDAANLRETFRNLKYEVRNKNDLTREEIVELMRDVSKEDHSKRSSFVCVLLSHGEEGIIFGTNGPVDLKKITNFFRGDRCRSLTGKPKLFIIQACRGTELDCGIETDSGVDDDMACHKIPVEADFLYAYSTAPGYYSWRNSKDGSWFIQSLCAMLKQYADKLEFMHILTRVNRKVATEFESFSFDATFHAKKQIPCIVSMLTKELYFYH

Caspase-7 = target: T3, Caspase-7 (Homo sapiens, UniProt P55210); experiment: Inhibitory concentration against recombinant human caspase-7 […]
T3 sequence (P55210 whole entry): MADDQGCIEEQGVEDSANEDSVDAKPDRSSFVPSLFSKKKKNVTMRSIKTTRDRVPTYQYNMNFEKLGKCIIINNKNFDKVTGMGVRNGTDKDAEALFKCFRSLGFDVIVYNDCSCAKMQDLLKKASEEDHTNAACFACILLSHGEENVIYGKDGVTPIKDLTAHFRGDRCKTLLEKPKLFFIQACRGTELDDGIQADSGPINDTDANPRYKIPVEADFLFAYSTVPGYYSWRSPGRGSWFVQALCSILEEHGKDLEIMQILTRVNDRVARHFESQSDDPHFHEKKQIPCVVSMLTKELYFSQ

Caspase-8 = Caspase-8 (Homo sapiens, UniProt Q14790); experiment: Inhibitory concentration against recombinant human caspase-8 […]
Caspase-2 [2] = target: T4, Caspase-2 (Homo sapiens, UniProt P42575); experiment: Inhibitory concentration against casp-2 in neuronal precursor (NT2) cells
T4 sequence (P42575 whole entry): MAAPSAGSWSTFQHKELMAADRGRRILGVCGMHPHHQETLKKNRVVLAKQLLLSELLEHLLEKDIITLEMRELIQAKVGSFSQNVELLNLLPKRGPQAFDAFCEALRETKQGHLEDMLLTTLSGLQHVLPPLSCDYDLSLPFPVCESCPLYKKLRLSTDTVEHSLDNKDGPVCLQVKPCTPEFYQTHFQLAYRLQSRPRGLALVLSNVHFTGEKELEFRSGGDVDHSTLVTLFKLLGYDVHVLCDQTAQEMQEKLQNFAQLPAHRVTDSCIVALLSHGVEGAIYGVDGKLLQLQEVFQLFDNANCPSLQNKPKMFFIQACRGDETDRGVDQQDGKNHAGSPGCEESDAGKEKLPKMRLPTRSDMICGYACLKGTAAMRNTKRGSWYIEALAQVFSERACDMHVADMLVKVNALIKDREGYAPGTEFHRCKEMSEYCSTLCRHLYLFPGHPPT

Caspase-10 [3] = target: T5, Caspase-10 (Homo sapiens, UniProt Q92851); experiment: Inhibitory concentration against casp-10 in neuronal precursor (NT2) cells
T5 sequence (Q92851 whole entry): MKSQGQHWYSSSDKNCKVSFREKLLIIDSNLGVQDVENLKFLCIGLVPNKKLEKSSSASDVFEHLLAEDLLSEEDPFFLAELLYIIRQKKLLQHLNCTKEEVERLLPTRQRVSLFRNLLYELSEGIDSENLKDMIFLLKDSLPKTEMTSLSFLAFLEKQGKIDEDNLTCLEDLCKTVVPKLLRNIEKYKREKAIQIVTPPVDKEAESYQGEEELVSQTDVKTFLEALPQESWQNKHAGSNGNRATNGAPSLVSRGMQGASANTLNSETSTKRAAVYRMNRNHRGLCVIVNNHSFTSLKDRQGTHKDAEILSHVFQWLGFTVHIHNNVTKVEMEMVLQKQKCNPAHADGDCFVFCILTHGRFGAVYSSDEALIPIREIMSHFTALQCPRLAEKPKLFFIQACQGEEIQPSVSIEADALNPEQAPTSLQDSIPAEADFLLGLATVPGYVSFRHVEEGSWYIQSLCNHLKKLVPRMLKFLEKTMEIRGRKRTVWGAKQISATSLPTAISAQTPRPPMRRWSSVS

Caspase-4 [4] = target: T6, Caspase-4 (Homo sapiens, UniProt P49662); experiment: Inhibitory concentration against casp-4 in neuronal precursor (NT2) cells
T6 sequence (P49662 whole entry): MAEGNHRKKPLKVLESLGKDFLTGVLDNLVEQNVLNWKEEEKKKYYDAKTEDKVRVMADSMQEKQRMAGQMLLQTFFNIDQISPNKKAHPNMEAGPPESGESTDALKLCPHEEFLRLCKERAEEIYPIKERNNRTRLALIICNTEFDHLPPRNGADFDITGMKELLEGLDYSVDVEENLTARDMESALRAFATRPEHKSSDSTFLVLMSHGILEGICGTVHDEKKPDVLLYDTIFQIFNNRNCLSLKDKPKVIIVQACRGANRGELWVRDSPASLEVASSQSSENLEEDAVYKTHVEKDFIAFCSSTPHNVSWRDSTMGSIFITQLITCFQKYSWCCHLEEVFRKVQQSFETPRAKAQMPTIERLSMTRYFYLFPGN

Caspase-5 [5] = target: T7, Caspase-5 (Homo sapiens, UniProt P51878); experiment: Inhibitory concentration against casp-5 in neuronal precursor (NT2) cells
T7 sequence (P51878 whole entry): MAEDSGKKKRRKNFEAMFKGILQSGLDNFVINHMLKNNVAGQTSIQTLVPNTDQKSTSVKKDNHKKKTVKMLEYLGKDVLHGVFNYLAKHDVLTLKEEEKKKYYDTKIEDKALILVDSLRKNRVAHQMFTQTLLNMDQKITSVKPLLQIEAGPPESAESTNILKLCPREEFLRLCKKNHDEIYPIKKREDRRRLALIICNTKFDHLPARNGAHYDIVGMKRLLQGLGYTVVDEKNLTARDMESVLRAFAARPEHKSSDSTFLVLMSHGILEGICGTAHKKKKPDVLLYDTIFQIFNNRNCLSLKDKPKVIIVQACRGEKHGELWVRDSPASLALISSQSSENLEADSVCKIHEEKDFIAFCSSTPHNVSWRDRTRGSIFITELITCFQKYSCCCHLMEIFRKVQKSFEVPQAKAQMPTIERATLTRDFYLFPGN

Caspase-6 [6] = target: T8, Caspase-6 (Homo sapiens, UniProt P55212); experiment: Inhibitory concentration against casp-6 in neuronal precursor (NT2) cells
T8 sequence (P55212 whole entry): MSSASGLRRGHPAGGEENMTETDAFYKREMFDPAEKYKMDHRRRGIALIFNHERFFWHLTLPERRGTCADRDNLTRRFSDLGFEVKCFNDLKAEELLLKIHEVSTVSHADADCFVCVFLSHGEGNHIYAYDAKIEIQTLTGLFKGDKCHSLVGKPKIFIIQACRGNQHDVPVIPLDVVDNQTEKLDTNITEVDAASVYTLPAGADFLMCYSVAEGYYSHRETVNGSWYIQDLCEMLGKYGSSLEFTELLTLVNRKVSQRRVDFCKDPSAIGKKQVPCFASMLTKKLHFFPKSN

[7] = Inhibitory concentration against etoposide induced apoptosis in rat cortical neurons; assay type: functional
[8] = Inhibitory concentration against cycloheximide induced cell death in human white blood cells in the absence of plasma proteins; assay type: functional, cell-based
[9] = Inhibitory concentration against cycloheximide induced cell death in human white blood cells in the presence of plasma proteins; assay type: functional, cell-based
NT2 = experiment: Inhibitory concentration against camptothecin induced apoptosis in neuronal precursor (NT2) whole cells; assay type: functional, cell-based; details: Homo sapiens
Caspase-2 [10] = target: T4, Caspase-2; experiment: Inhibitory concentration against caspase-2 in neuronal precursor (NT2) cells
Caspase-4 [11] = target: T6, Caspase-4; experiment: Inhibitory concentration against human caspase-4 in neuronal precursor (NT2) cells
Caspase-5 [12] = target: T7, Caspase-5; experiment: Inhibitory concentration against human caspase-5 in neuronal precursor (NT2) cells
Caspase-6 [13] = target: T8, Caspase-6; experiment: Inhibitory concentration against caspase-6 in neuronal precursor (NT2) cells
Caspase-10 [14] = target: T5, Caspase-10; experiment: Inhibitory concentration against caspase-10 in neuronal precursor (NT2) cells

Sequence of Caspase-8 (Q14790 217-374 limits assumed): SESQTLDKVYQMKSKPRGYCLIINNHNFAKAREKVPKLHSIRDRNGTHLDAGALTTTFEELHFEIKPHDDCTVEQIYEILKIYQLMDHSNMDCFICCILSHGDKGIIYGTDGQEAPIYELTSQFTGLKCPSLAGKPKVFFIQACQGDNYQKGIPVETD
Sequence of Caspase-8 (Q14790 385-479 limits assumed): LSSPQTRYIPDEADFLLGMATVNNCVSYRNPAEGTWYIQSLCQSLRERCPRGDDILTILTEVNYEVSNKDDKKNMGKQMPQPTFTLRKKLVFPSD

SMILES | IC50 (Caspase-1) | IC50 (Caspase-7) | IC50 (Caspase-8) | IC50 (NT2) | IC50 (Caspase-3) | other results
CCCCCN(C)CC(=O)C(CC(=O)O)NC(=O)C(CC)n1cc(C(C)(C)C)nc(NCc2nonc2C)c1=O (stereo not drawn) | 110 nM | 90 nM | 4030 nM | 27 nM |  | IC50 [1]: 60 nM; Ki (Caspase-3): 1.4 nM; IC50 (Caspase-2 [2]): > 10000 nM; IC50 (Caspase-10 [3]): 29500 nM; IC50 (Caspase-4 [4]): 500 nM; IC50 (Caspase-5 [5]): 810 nM; IC50 (Caspase-6 [6]): 3440 nM; IC50 [7]: 60 nM; IC50 [8]: 40 nM; IC50 [9]: 700 nM
CCCCCCN(C)CC(=O)C(CC(=O)O)NC(=O)C(CC)n1cc(C(C)(C)C)nc(NCc2nonc2C)c1=O (stereo not drawn) | 50 nM | 13 nM | 2100 nM | 21 nM |  | IC50 [1]: 50 nM; Ki (Caspase-3): 5 nM; IC50 (Caspase-2 [10]): > 10000 nM; IC50 (Caspase-4 [11]): 300 nM; IC50 (Caspase-5 [12]): 200 nM; IC50 (Caspase-6 [13]): 1700 nM; IC50 (Caspase-10 [14]): 17700 nM; IC50 [7]: 90 nM; IC50 [8]: 50 nM; IC50 [9]: 1200 nM
CCC(C(=O)N[C@@H](CC(=O)O)C(=O)CSCc1ccccc1)n1ccnc(NCC2COc3ccccc3O2)c1=O (stereo partly drawn) | 87 nM | 3280 nM | 8220 nM | 30000 nM | 140 nM | 
CCC(C(=O)N[C@@H](CC(=O)O)C(C)=O)n1cc(C(C)(C)C)nc(NCc2nonc2C)c1=O (stereo partly drawn) | 1230 nM | 480 nM | 10000 nM | 5120 nM | 64 nM | 
CCC(C(=O)N[C@@H](CC(=O)O)C(=O)CNCN1CCCCC1)n1cc(C(C)(C)C)nc(NCc2nonc2C)c1=O (stereo partly drawn) | 620 nM | 130 nM | > 10000 nM | 290 nM | 21 nM | 
CCC(C(=O)N[C@@H](CC(=O)O)C(=O)CCCc1ccccc1)n1cc(C(C)(C)C)nc(NCc2nonc2C)c1=O (stereo partly drawn) | 5130 nM | 140 nM | 5280 nM | 1380 nM | 14 nM | 
CCOCN(C)CNCC(=O)[C@H](CC(=O)O)NC(=O)C(CC)n1ccnc(NCc2nonc2C)c1=O (stereo partly drawn) | 1750 nM | 1010 nM | > 10000 nM | 3990 nM | 100 nM | 
CC[C@@H](C(=O)N[C@@H](CC(=O)O)C(=O)CSCc1ccccc1)n1cccc(NC(=O)[C@H](CC(=O)O)NC(C)=O)c1=O | 60 nM | 10 nM | 220 nM | 5200 nM | 0.3 nM | 
CCC(C(=O)N[C@@H](CC(=O)O)C(=O)c1ncc(-c2ccccc2)o1)n1ccnc(NCc2nonc2C)c1=O (stereo partly drawn) | 460 nM | 750 nM | 9570 nM | 8390 nM | 63 nM | 
CCC(C(=O)N[C@@H](CC(=O)O)C(=O)CSCc1ccccc1)n1ccnc(NCCCOC)c1=O (stereo partly drawn) | 920 nM | 9730 nM | 7650 nM | > 10000 nM | 71 nM | 
CCC(C(=O)N[C@@H](CC(=O)O)C(=O)CSCc1ccccc1)n1ccnc(NCc2cccs2)c1=O (stereo partly drawn) | 65 nM | 810 nM | 2090 nM | 4560 nM | 36 nM | 
CCCN(C)CNCC(=O)[C@H](CC(=O)O)NC(=O)C(CC)n1ccnc(NCc2nonc2C)c1=O (stereo partly drawn) | 620 nM | 320 nM | > 10000 nM | 1420 nM | 17 nM | 
CCCCCCCCN(C)CNCC(=O)[C@H](CC(=O)O)NC(=O)C(CC)n1ccnc(NCc2nonc2C)c1=O (stereo partly drawn) | 25 nM | 100 nM | > 10000 nM | 150 nM | 9 nM | 
